{"source": "patent US8470381B2", "about": "“Spinosyn antifouling compositions, methods of use thereof and articles protected from attachment of biofouling organisms” (Entarco S.A., priority 2008, dated 2013)", "key": {"Alcaligenes sp (Al)": {"test_system": "Alcaligenes sp (Al)", "assay": "Agar diffusion antimicrobial assay against marine bacteria associated with Balanus amphitrite", "type": "cell-based", "details": "24 hours", "description": "(§1) The effect of spinosad as a bacteriostatic compound was tested against four bacterial species using standard agar diffusion techniques, as described by Avelin et al., J. Chem. Ecol., 19(10), 2155-67 (1993). The bacteria used in the test were as follows: Aeromonas sp (Ae); Alcaligenes sp (Al); Flavobacterium sp (F); and Vibrio sp (V);\n(§2) The agar diffusion technique follows the original method by Acar (1980). In a sterilized petri dish 1 ml of 12 hour old nutrient broth culture, comprising of 3.7% of marine broth in distilled water, of each marine bacterial species was transferred along with 20 ml of antibiotic agar medium.\n(§3) Sterilized Whatman No. 1 paper discs (6.25 mm diameter) were loaded with the test solution (2.4% w/w Tracer in distilled water) at concentrations calculated in pure spinosad ranging from 10^−1 mg/10 μl to 10^−4 mg/10 μl. Control discs were loaded with only the vehicle. After 24 hours of exposure to the test solution, the zone of inhibition, i.e. the area around the disc devoid of marine bacterial growth was measured by determining the distance from the edge of the disc to the edge of the area showing no bacterial growth (mm)."}, "Vibrio sp (V)": {"test_system": "Vibrio sp (V)", "assay": "Agar diffusion antimicrobial assay against marine bacteria associated with Balanus amphitrite", "type": "cell-based", "details": "24 hours", "description": "as §1, §2, §3"}, "Flavobacterium sp (F)": {"test_system": "Flavobacterium sp (F)", "assay": "Agar diffusion antimicrobial assay against marine bacteria associated with Balanus amphitrite", "type": "cell-based", "details": "24 hours", "description": "as §1, §2, §3"}, "Aeromonas sp (Ae)": {"test_system": "Aeromonas sp (Ae)", "assay": "Agar diffusion antimicrobial assay against marine bacteria associated with Balanus amphitrite", "type": "cell-based", "details": "isolate Ae1, 24 hours", "description": "as §1, §2, §3"}, "[1]": {"test_system": "barnacle cyprids (Balanus amphitrite Darwin)", "assay": "Barnacle cyprid settlement assay and EC50 determination", "type": "in vivo", "details": "for % of set: dishes a, b, c and Total (mean), control mean 78", "description": "The barnacle, Balanus amphitrite Darwin, is the most ubiquitous hard fouling organism found in all marine ecosystems, particularly in ports visited by commercial shipping. The methods used in this evaluation have been described in detail in a number of publications (Rittschof D, Clare A S, Gerhart D J, Avelin Mary, Bonavetura J (1991) Barnacle in vitro assays for biologically active substances: toxicity and settlement assays using mass cultured Balanus amphitrite amphitrite Darwin. Biofouling 6:115-122.\nThe barnacle adults are cultured in the laboratory and allowed to spawn naturally. The larvae are harvested and grown in artificial culture systems until they reach the cyprid stage at which time the larvae become competent to attach to surfaces. Once attached, the cyprids transform into a pinhead barnacle, thus becoming permanently attached to the surface.\nThe sample solution tested was a 23.2% w/w solution of Tracer in distilled water (equivalent to 10% w/w in pure spinosad or 100 mg spinosad/ml). The sample was stirred prior to making serial dilutions.\nThe data are summarized in the Tables 2 and 3 below along with the calculations for the EC50. […] Thereafter, there was dose dependent attachment from 10^−5 and at lower concentrations, only reaching control values at […]. The EC50 calculation via probit analysis show an EC50 of 7×10^−8 mg/ml.\nAdditional notes to the data below: 1. Set means the total number of cyprid larvae that have settled and attached on the surface of the petri dish. 2. Non-Set means the total number of cyprids that remain swimming in the seawater and not settled on the surface. 3. Data are expressed as the percentage of cyprids that settled on the surface. 4. Data are summarized and the mean, standard deviation (SD) and the standard error of the mean (SE) are calculated for samples. 5. Tests were conducted in replicates of three dishes per study group; each dish containing anywhere from 75 to 100 cyprids."}, "Dunaliella tertiolecta": {"test_system": "Dunaliella tertiolecta", "assay": "Inhibition of the growth of the fouling microalgae in flask culture", "type": "cell-based", "details": "10-^2 to 10^−9 mg spinosad/ml; cells counted each day", "description": "A water emulsion containing 23.2% w/w Tracer®=10% spinosad was used at the start of this assay. Dunaliella tertiolecta was maintained in stock cultures in 20 ml test tubes as seed cultures and maintained on seven day transfer cycle. The marine micro-algae were inoculated into 250 ml conical flasks containing 100 ml of filtered, sterilized seawater in F/2-Guillard-1975 growth medium. The initial 10% spinosad emulsion (coded Entarco 8205 10%), was further dissolved in distilled water and added at various concentrations to each algal culture for final concentrations ranging from 10-^2 mg spinosad/ml to 10^−9 mg spinosad/ml. Controls consisted of algal culture without the test solution. Each test group was comprised of 3 flasks.\nThe typical culture goes through four phases. Lag phase is characterized by little or no multiplication of the cells. Log phase or exponential phase is when there is a rapid increase in the rate of cell division. During the next phase, called stationary phase, the number of living cells remain constant and there is no further growth. […] The growth of the algal cells in each flask was counted each day by haemocytometer. The entire growth and decline of the culture in the presence or absence of spinosad was determined (Targett, 1988 Allelochemistry in marine organisms: Chemical fouling and antifouling strategies)."}}, "note": "Values joined by “and” are separate entries in the source; they are usually repeats but may differ in a detail not shown here. Equal entries are not always repeated. “Also recorded” adds a separate entry of the source.", "data": [{"substance": "spinosad", "values": [{"measurement": "zone of inhibition", "setting": "Alcaligenes sp (Al); isolate Al1, 10^−1 mg/10 μl (10000 ppm spinosad)", "value": 8, "unit": "mm"}, {"measurement": "zone of inhibition", "setting": "Alcaligenes sp (Al); isolate Al1, 10^−2 mg/10 μl (1000 ppm spinosad)", "value": 6, "unit": "mm"}, {"measurement": "zone of inhibition", "setting": "Alcaligenes sp (Al); isolate Al1, 10^−3 mg/10 μl (100 ppm spinosad)", "value": 6, "unit": "mm"}, {"measurement": "zone of inhibition", "setting": "Alcaligenes sp (Al); isolate Al1, 10^−4 mg/10 μl (10 ppm spinosad)", "value": 6, "unit": "mm"}, {"measurement": "zone of inhibition", "setting": "Alcaligenes sp (Al); isolate Al2, 10^−1 mg/10 μl (10000 ppm spinosad)", "value": 7, "unit": "mm"}, {"measurement": "zone of inhibition", "setting": "Alcaligenes sp (Al); isolate Al2, 10^−2 mg/10 μl (1000 ppm spinosad)", "value": 6.5, "unit": "mm"}, {"measurement": "zone of inhibition", "setting": "Alcaligenes sp (Al); isolate Al2, 10^−3 mg/10 μl (100 ppm spinosad)", "value": 5.5, "unit": "mm"}, {"measurement": "zone of inhibition", "setting": "Alcaligenes sp (Al); isolate Al2, 10^−4 mg/10 μl (10 ppm spinosad)", "value": 5.5, "unit": "mm"}, {"measurement": "zone of inhibition", "setting": "Vibrio sp (V); isolate V1, 10^−1 mg/10 μl (10000 ppm spinosad)", "value": 8, "unit": "mm"}, {"measurement": "zone of inhibition", "setting": "Vibrio sp (V); isolate V1, 10^−2 mg/10 μl (1000 ppm spinosad)", "value": 5.5, "unit": "mm"}, {"measurement": "zone of inhibition", "setting": "Vibrio sp (V); isolate V1, 10^−3 mg/10 μl (100 ppm spinosad)", "value": 5.5, "unit": "mm"}, {"measurement": "zone of inhibition", "setting": "Vibrio sp (V); isolate V1, 10^−4 mg/10 μl (10 ppm spinosad)", "value": 5.5, "unit": "mm"}, {"measurement": "zone of inhibition", "setting": "Vibrio sp (V); isolate V2, 10^−1 mg/10 μl (10000 ppm spinosad)", "value": 8, "unit": "mm"}, {"measurement": "zone of inhibition", "setting": "Vibrio sp (V); isolate V2, 10^−2 mg/10 μl (1000 ppm spinosad)", "value": 7, "unit": "mm"}, {"measurement": "zone of inhibition", "setting": "Vibrio sp (V); isolate V2, 10^−3 mg/10 μl (100 ppm spinosad)", "value": 6, "unit": "mm"}, {"measurement": "zone of inhibition", "setting": "Vibrio sp (V); isolate V2, 10^−4 mg/10 μl (10 ppm spinosad)", "value": 6, "unit": "mm"}, {"measurement": "zone of inhibition", "setting": "Flavobacterium sp (F); isolate F1, 10^−1 mg/10 μl (10000 ppm spinosad)", "value": 7.5, "unit": "mm"}, {"measurement": "zone of inhibition", "setting": "Flavobacterium sp (F); isolate F1, 10^−2 mg/10 μl (1000 ppm spinosad)", "value": 6, "unit": "mm"}, {"measurement": "zone of inhibition", "setting": "Flavobacterium sp (F); isolate F1, 10^−3 mg/10 μl (100 ppm spinosad)", "value": 6, "unit": "mm"}, {"measurement": "zone of inhibition", "setting": "Flavobacterium sp (F); isolate F1, 10^−4 mg/10 μl (10 ppm spinosad)", "value": 6, "unit": "mm"}, {"measurement": "zone of inhibition", "setting": "Flavobacterium sp (F); isolate F2, 10^−1 mg/10 μl (10000 ppm spinosad)", "value": 7.5, "unit": "mm"}, {"measurement": "zone of inhibition", "setting": "Flavobacterium sp (F); isolate F2, 10^−2 mg/10 μl (1000 ppm spinosad)", "value": 6, "unit": "mm"}, {"measurement": "zone of inhibition", "setting": "Flavobacterium sp (F); isolate F2, 10^−3 mg/10 μl (100 ppm spinosad)", "value": 6, "unit": "mm"}, {"measurement": "zone of inhibition", "setting": "Flavobacterium sp (F); isolate F2, 10^−4 mg/10 μl (10 ppm spinosad)", "value": 6, "unit": "mm"}, {"measurement": "zone of inhibition", "setting": "Aeromonas sp (Ae); 10^−1 mg/10 μl (10000 ppm spinosad)", "value": 7.5, "unit": "mm"}, {"measurement": "zone of inhibition", "setting": "Aeromonas sp (Ae); 10^−2 mg/10 μl (1000 ppm spinosad)", "value": 7, "unit": "mm"}, {"measurement": "zone of inhibition", "setting": "Aeromonas sp (Ae); 10^−3 mg/10 μl (100 ppm spinosad)", "value": 7, "unit": "mm"}, {"measurement": "zone of inhibition", "setting": "Aeromonas sp (Ae); 10^−4 mg/10 μl (10 ppm spinosad)", "value": 5.5, "unit": "mm"}, {"measurement": "% of set", "setting": "[1]; 0.1 mg spinosad/ml", "value": 0, "unit": "%"}, {"measurement": "% of set", "setting": "[1]; 10−^2 mg spinosad/ml", "value": 0, "unit": "%"}, {"measurement": "% of set", "setting": "[1]; 10−^3 mg spinosad/ml", "value": 0, "unit": "%"}, {"measurement": "% of set", "setting": "[1]; 10−^4 mg spinosad/ml", "value": 0, "unit": "%"}, {"measurement": "% of set", "setting": "[1]; 10−^5 mg spinosad/ml", "value": "7% and 9% and 12%"}, {"measurement": "% of set", "setting": "[1]; 10−^7 mg spinosad/ml", "value": "31% and 34% and 42%"}, {"measurement": "% of set", "setting": "[1]; 10−^8 mg spinosad/ml", "value": "52% and 57% and 50%"}, {"measurement": "% of set", "setting": "[1]; 10−^9 mg spinosad/ml", "value": "63% and 61% and 70%"}, {"measurement": "% of set", "setting": "[1]; 10−^10 mg spinosad/ml", "value": "77% and 78% and 71%"}, {"measurement": "% of set", "setting": "[1]; 10−^11 mg spinosad/ml", "value": "77% and 79% and 72%"}, {"measurement": "mortality of cyprids", "setting": "[1]; all concentrations tested", "value": "absence of any mortality; also recorded: no mortality seen at all concentrations tested"}, {"measurement": "cyprid settlement", "setting": "[1]; from 10^−1 to 10^−4 mg/ml", "value": "no cyprid settlement"}, {"measurement": "mortality of cyprids", "setting": "[1]; highest concentration used (0.1 mg spinosad/ml)", "value": "no mortality was observed"}, {"measurement": "EC50 on the settlement of barnacle cyprids", "setting": "[1]; probit analysis", "value": 0.07, "unit": "ng/mL"}, {"measurement": "growth of Dunaliella tertiolecta (FIG. 1)", "setting": "Dunaliella tertiolecta", "value": "significant microalgae inhibitory properties which are dose dependent"}]}]}
